Literature values in US4996197A, “Pharmaceutical and/or cosmetic composition for local use containing Rhamsan gum” (Laboratoires Merck Sharp & Dohme-Chibret, priority 1987, dated 1991).

Conditions: with polyvinyl alcohol; Maichuk, Am. J. Ophthal, 74: 694, 1972

| Molecule | pharmacological response to medicinal products |
| --- | --- |
| Nc1ccc(S(=O)(=O)[N-]c2cccnn2)cc1.[Na+] [sulphapyridazine sodium] | enhances the pharmacological response |
| erythrocin propionate | enhances the pharmacological response |
